Source: ChEMBL document CHEMBL1201862, “PubChem BioAssay data set” (2004)
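Exposure lasted 48 hours, with cells grown in 96-well plates and compounds tested at five concentrations. GI50 marks 50% less growth.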 The source made the active and inactive calls. Rule as the data show it: active = GI50 up to about 1.1 µM and inactive = higher.

Tests used:
Assay in all cases: NCI-60 cell line screen, 48 h
OVCAR-8 = tested on: OVCAR-8
MDA-MB-231 = tested on: MDA-MB-231
SNB-75 = tested on: SNB-75
SN12C = tested on: SN12C
T47D = tested on: T47D
LOX IMVI = tested on: LOX IMVI
ACHN = tested on: ACHN
A549 = tested on: A549
SK-MEL-5 = tested on: SK-MEL-5
M14 = tested on: M14
COLO 205 = tested on: COLO 205
RPMI-8226 = tested on: RPMI-8226
UACC-62 = tested on: UACC-62
SK-OV-3 = tested on: SK-OV-3
SF-268 = tested on: SF-268
U-251 = tested on: U-251
MDA-N = tested on: MDA-N
SK-MEL-28 = tested on: SK-MEL-28
UO-31 = tested on: UO-31
TK-10 = tested on: TK-10
A498 = tested on: A498
MDA-MB-435 = tested on: MDA-MB-435
NCI-H460 = tested on: NCI-H460
SNB-19 = tested on: SNB-19
NCI-H522 = tested on: NCI-H522
786-0 = tested on: 786-0
HCT-116 = tested on: HCT-116
MCF7 = tested on: MCF7
IGROV-1 = tested on: IGROV-1
NCI-H226 = tested on: NCI-H226
Hs-578T = tested on: Hs-578T
NCI/ADR-RES = tested on: NCI/ADR-RES
SF-295 = tested on: SF-295
HOP-92 = tested on: HOP-92
Malme-3M = tested on: Malme-3M
OVCAR-4 = tested on: OVCAR-4
NCI-H23 = tested on: NCI-H23
SK-MEL-2 = tested on: SK-MEL-2
KM12 = tested on: KM12
CAKI-1 = tested on: CAKI-1
HCC 2998 = tested on: HCC 2998
SF-539 = tested on: SF-539
PC-3 = tested on: PC-3
HOP-62 = tested on: HOP-62
DU-145 = tested on: DU-145
HL-60 = tested on: HL-60
K562 = tested on: K562
RXF 393 = tested on: RXF 393
MOLT-4 = tested on: MOLT-4
HCT-15 = tested on: HCT-15
CCRF-CEM = tested on: CCRF-CEM
UACC-257 = tested on: UACC-257
EKVX = tested on: EKVX
OVCAR-3 = tested on: OVCAR-3
OVCAR-5 = tested on: OVCAR-5
SW-620 = tested on: SW-620
HT-29 = tested on: HT-29
SR = tested on: SR

O=C1Cc2c([nH]c3ccc(Cl)cc23)-c2ccccc2N1
GI50 (OVCAR-8): > 100 µM (inactive)
GI50 (MDA-MB-231): > 100 µM (inactive)
GI50 (SNB-75): > 100 µM (inactive)
GI50 (SN12C): > 100 µM (inactive)
GI50 (T47D): > 100 µM (inactive)
GI50 (LOX IMVI): 2.13 µM (inactive)
GI50 (ACHN): > 100 µM (inactive)
GI50 (A549): > 100 µM (inactive)
GI50 (SK-MEL-5): > 100 µM (inactive)
GI50 (M14): > 100 µM (inactive)
GI50 (COLO 205): > 100 µM (inactive)
GI50 (RPMI-8226): > 100 µM (inactive)
GI50 (UACC-62): 74.6 µM (inactive)
GI50 (SK-OV-3): > 100 µM (inactive)
GI50 (SF-268): > 100 µM (inactive)
GI50 (U-251): > 100 µM (inactive)
GI50 (MDA-N): > 100 µM (inactive)
GI50 (SK-MEL-28): > 100 µM (inactive)
GI50 (UO-31): > 100 µM (inactive)
GI50 (TK-10): > 100 µM (inactive)
GI50 (A498): > 100 µM (inactive)
GI50 (MDA-MB-435): > 100 µM (inactive)
GI50 (NCI-H460): > 100 µM (inactive)
GI50 (SNB-19): > 100 µM (inactive)
GI50 (NCI-H522): > 100 µM (inactive)
GI50 (786-0): > 100 µM (inactive)
GI50 (HCT-116): 3.17 µM (inactive)
GI50 (MCF7): > 100 µM (inactive)
GI50 (IGROV-1): > 100 µM (inactive)
GI50 (NCI-H226): > 100 µM (inactive)
GI50 (Hs-578T): > 100 µM (inactive)
GI50 (NCI/ADR-RES): > 100 µM (inactive)
GI50 (SF-295): > 100 µM (inactive)
GI50 (HOP-92): > 100 µM (inactive)
GI50 (Malme-3M): > 100 µM (inactive)
GI50 (OVCAR-4): > 100 µM (inactive)
GI50 (NCI-H23): > 100 µM (inactive)

COc1cc2c3c([nH]c2c(OC)c1OC)CCN(Cc1ccccc1)C3
GI50 (OVCAR-8): > 100 µM (inactive)
GI50 (MDA-MB-231): 32.8 µM (inactive)
GI50 (SNB-75): 42.1 µM (inactive)
GI50 (SN12C): 45.6 µM (inactive)
GI50 (SK-MEL-2): 22.6 µM (inactive)
GI50 (T47D): 24.8 µM (inactive)
GI50 (LOX IMVI): 16.3 µM (inactive)
GI50 (KM12): > 100 µM (inactive)
GI50 (ACHN): 47.8 µM (inactive)
GI50 (CAKI-1): 0.787 µM (active)
GI50 (A549): 86.7 µM (inactive)
GI50 (SK-MEL-5): 18.9 µM (inactive)
GI50 (M14): 14.1 µM (inactive)
GI50 (COLO 205): 17 µM (inactive)
GI50 (HCC 2998): 17.9 µM (inactive)
GI50 (RPMI-8226): 18.5 µM (inactive)
GI50 (UACC-62): 32.3 µM (inactive)
GI50 (SF-268): 62.5 µM (inactive)
GI50 (SF-539): 17.7 µM (inactive)
GI50 (U-251): 31.8 µM (inactive)
GI50 (PC-3): 55.1 µM (inactive)
GI50 (MDA-N): 16.9 µM (inactive)
GI50 (SK-MEL-28): 21.6 µM (inactive)
GI50 (TK-10): 21.7 µM (inactive)
GI50 (A498): 22.3 µM (inactive)
GI50 (MDA-MB-435): 15.6 µM (inactive)
GI50 (HOP-62): 93.5 µM (inactive)
GI50 (NCI-H460): 14.9 µM (inactive)
GI50 (DU-145): > 100 µM (inactive)
GI50 (SNB-19): 3.07 µM (inactive)
GI50 (HL-60): 21.4 µM (inactive)
GI50 (K562): 20.2 µM (inactive)
GI50 (RXF 393): > 100 µM (inactive)
GI50 (NCI-H522): > 100 µM (inactive)
GI50 (MOLT-4): 25.1 µM (inactive)
GI50 (HCT-15): 31.9 µM
GI50 (786-0): 22.3 µM (inactive)
GI50 (CCRF-CEM): 17.7 µM (inactive)
GI50 (UACC-257): 19.9 µM (inactive)
GI50 (HCT-116): 33.9 µM (inactive)
GI50 (MCF7): 18.1 µM (inactive)
GI50 (EKVX): > 100 µM (inactive)
GI50 (IGROV-1): 57.7 µM (inactive)
GI50 (OVCAR-3): 64.6 µM (inactive)
GI50 (NCI-H226): 20.9 µM (inactive)
GI50 (OVCAR-5): 23.8 µM (inactive)
GI50 (SW-620): 1.95 µM (inactive)
GI50 (Hs-578T): 32.4 µM (inactive)
GI50 (NCI/ADR-RES): 29.9 µM (inactive)
GI50 (SF-295): 30.8 µM (inactive)
GI50 (HT-29): 11.4 µM (inactive)
GI50 (HOP-92): 6.27 µM (inactive)
GI50 (Malme-3M): 16.6 µM (inactive)
GI50 (OVCAR-4): 64.7 µM (inactive)
GI50 (NCI-H23): 33.1 µM (inactive)

Cc1cc2ccccc2c[n+]1CC(=O)CC([O-])(C(F)(F)F)C(F)(F)F
GI50 (OVCAR-8): > 100 µM (inactive)
GI50 (MDA-MB-231): > 100 µM (inactive)
GI50 (SNB-75): > 100 µM (inactive)
GI50 (SN12C): > 100 µM (inactive)
GI50 (SK-MEL-2): > 100 µM (inactive)
GI50 (T47D): > 100 µM (inactive)
GI50 (LOX IMVI): > 100 µM (inactive)
GI50 (ACHN): > 100 µM (inactive)
GI50 (CAKI-1): > 100 µM (inactive)
GI50 (A549): > 100 µM (inactive)
GI50 (SK-MEL-5): 50.7 µM (inactive)
GI50 (M14): > 100 µM (inactive)
GI50 (COLO 205): > 100 µM (inactive)
GI50 (HCC 2998): > 100 µM (inactive)
GI50 (RPMI-8226): 69.7 µM (inactive)
GI50 (UACC-62): > 100 µM (inactive)
GI50 (SK-OV-3): > 100 µM (inactive)
GI50 (SR): > 100 µM (inactive)
GI50 (SF-268): > 100 µM (inactive)
GI50 (SF-539): > 100 µM (inactive)
GI50 (U-251): > 100 µM (inactive)
GI50 (PC-3): > 100 µM (inactive)
GI50 (MDA-N): > 100 µM (inactive)
GI50 (SK-MEL-28): > 100 µM (inactive)
GI50 (UO-31): > 100 µM (inactive)
GI50 (A498): 36.1 µM (inactive)
GI50 (MDA-MB-435): > 100 µM (inactive)
GI50 (HOP-62): > 100 µM (inactive)
GI50 (NCI-H460): > 100 µM (inactive)
GI50 (DU-145): > 100 µM (inactive)
GI50 (SNB-19): > 100 µM (inactive)
GI50 (HL-60): > 100 µM (inactive)
GI50 (K562): 72.8 µM (inactive)
GI50 (RXF 393): 37.3 µM (inactive)
GI50 (NCI-H522): 85.1 µM (inactive)
GI50 (MOLT-4): 79.8 µM (inactive)
GI50 (HCT-15): > 100 µM
GI50 (786-0): > 100 µM (inactive)
GI50 (CCRF-CEM): 90.8 µM (inactive)
GI50 (UACC-257): > 100 µM (inactive)
GI50 (HCT-116): > 100 µM (inactive)
GI50 (EKVX): > 100 µM (inactive)
GI50 (IGROV-1): 41.3 µM (inactive)
GI50 (OVCAR-3): 53.2 µM (inactive)
GI50 (NCI-H226): > 100 µM (inactive)
GI50 (OVCAR-5): > 100 µM (inactive)
GI50 (SW-620): > 100 µM (inactive)
GI50 (Hs-578T): > 100 µM (inactive)
GI50 (NCI/ADR-RES): > 100 µM (inactive)
GI50 (SF-295): > 100 µM (inactive)
GI50 (HT-29): 56.6 µM (inactive)
GI50 (HOP-92): 58.1 µM (inactive)
GI50 (Malme-3M): > 100 µM (inactive)
GI50 (OVCAR-4): > 100 µM (inactive)
GI50 (NCI-H23): 87.5 µM (inactive)
